Experimental data reported in patent publication US8580769B2, “Treatment of obesity, metabolic syndrome, and diabetes with protein kinase C inhibitors” (The United States of America as represented by the …, priority 2011, dated 2013).

Columns and labels:
liver of Het-MλKO mice = test: hepatic mRNA and nuclear NFκB levels in Het-MλKO mice; assay type: in vivo, mouse; conditions: for hepatic ACC mRNA / hepatic FAS mRNA: 7-day treatment s.c. (ATM 60 mg/kg; ICAPP 0.4 mg/kg); for hepatic G6 Pase expression / hepatic PEPCK expression / hepatic SREBP-1c mRNA: s.c. once daily (ATM 60 mg/kg; ICAPP 0.4 mg/kg; ICAP 0.5 mg/kg)
From the text: (§1) In Vivo Mouse Studies: Male wild type (WT) and heterozygous muscle-specific PKC-λ knockout (Het-MλKO) mice were generated as described (Farese et al., J. Clin. Invest. 117:2289-2301, 2007) and used at 6-12 months of age, when the O/MS/T2DM phenotype in MλKO mice is well-developed. Mice were housed in a temperature-controlled environment with alternating 12-hour light and dark cycles, and fed ad libitum with standard chow (Harlan Teklad 20/18 with 5% fat, (10% of calories from fat)). All experimental procedures in mice were approved by the Institutional Animal Care and Use Committees of the Roskamp Institute and the University of South Florida College of Medicine, and the James A. Haley Veterans Administration Medical Center Research and Development Committee, Tampa, Fla.
(§2) (ICAPP; prepared by Southern Research, Birmingham, Ala.) at 0.4 mg/kg body weight. On the morning of the eighth day of inhibitor treatment, mice were injected intraperitoneally (IP) with 0.9% saline or saline containing 1 U insulin/kg body weight 15 minutes before sacrifice, an optimal time for studies of insulin stimulation of aPKC and Akt in liver, muscle and adipose tissues (Standaert et al., J. Biol. Chem. 279:24929-24934, 2004; Sajan et al., J. Lipid Res. 50:1133-1145, 2009; Sajan et al., Diabetologia 52:1197-1207, 2009; Farese et al., J. Clin. Invest. 117:2289-2301, 2007). After killing, blood, liver, quadriceps muscle and abdominal adipose tissues were rapidly removed and homogenized in buffer with a POLYTRON® homogenizer.
mRNA Measurements: As previously described (Sajan et al., J. Lipid Res. 50:1133-1145, 2009; Sajan et al., Diabetologia 52:1197-1207, 2009; Farese et al., J. Clin. Invest. 117:2289-2301, 2007), tissues were added to TRIZOL® reagent (Invitrogen) and RNA was extracted and purified with the RNEASY® Mini-Kit (Qiagen; Valencia, Calif.) and RNAase-free DNAase set (Qiagen) as per kit instructions, quantified by measuring A260/A280, further checked for purity by electrophoresis on 1.2% agarose gels, and mRNA quantified by quantitative real-time reverse transcriptase-polymerase chain reaction (RT-PCR). Reverse transcription was accomplished with TAQMAN® reverse transcription reagent from Applied Biosystems (Foster City, Calif., USA). mRNAs were measured with a SYBR® Green kit (Applied Biosystems) using the nucleotide primers shown in Table 1.
Nuclear Preparations: As previously described (Sajan et al., J. Lipid Res. 50:1133-1145, 2009; Sajan et al., Diabetologia 52:1197-1207, 2009; Farese et al., J. Clin. Invest. 117:2289-2301, 2007), liver nuclei were prepared with NE-PER® Nuclear and Cytoplasmic Extraction Reagents (Pierce Biotechnology/Thermo Scientific, Waltham, Mass.; Cat. No. 78833) Levels of the active p65/RelA subunit of NFκB were measured in these nuclear preparations.

Het-MλKO mice = test: clinical parameters in Het-MλKO mice (model of obesity/metabolic syndrome/T2DM); assay type: in vivo, mouse; conditions: for hepatic triglycerides / resting (basal) serum insulin levels: 7-day treatment s.c. (ATM 60 mg/kg; ICAPP 0.4 mg/kg); for serum glucose levels following acute insulin treatment: insulin 1 U/kg i.p.; for basal serum glucose levels (before insulin): s.c. once daily (ICAPP 0.4 mg/kg; ICAP 0.5 mg/kg)
From the text: as §1, §2
Measurements of Serum Triglycerides, Cholesterol, Free Fatty Acids, Insulin and Glucose: Serum triglycerides, cholesterol, free fatty acids, insulin and glucose levels were measured as previously described (Sajan et al., J. Lipid Res. 50:1133-1145, 2009; Sajan et al., Diabetologia 52:1197-1207, 2009; Farese et al., J. Clin. Invest. 117:2289-2301, 2007).
Both aPKC inhibitors were tested in a murine model of O/MS/T2DM, a heterozygous muscle-specific PKC-λ knockout (Het-MλKO) mice, wherein defective insulin-stimulated glucose transport in muscle leads to glucose intolerance, systemic insulin resistance, hyperinsulinemia, increased hepatic aPKC activity, activation of hepatic SREBP-1c and IKKβ/NFκB, and thus to increased expression of hepatic enzymes engaged in lipogenesis and cytokine production, and ultimately to hepatosteatosis, abdominal obesity, hypertriglyceridemia, fatty acidemia, hypercholesterolemia, hyperinsulinemia, glucose intolerance, fasting hyperglycemia, and diminished glucose-lowering effects of acutely administered insulin (Sajan et al., J. Lipid Res. 50:1133-1145, 2009; Farese et al., J. Clin. Invest. 117:2289-2301, 2007).

[1] = test system: AMP-activated protein kinase; test: AMP-activated protein kinase activity
[2] = Het-MλKO mice, ATM 60 mg/kg/day s.c., 7 days
[3] = Het-MλKO mice, s.c. once daily (ATM 60 mg/kg; ICAPP 0.4 mg/kg; ICAP 0.5 mg/kg)
[4] = liver of ICAP-treated Mλ-Het KO mice, relative to wild type = 1
[5] = ICAP-treated Mλ-Het KO mice (n = 12), 0.5 mg/kg body weight/day x 8 days s.c., mean ± SEM

SMILES	hepatic ACC mRNA (liver of Het-MλKO mice; Het-MλKO mice)	hepatic FAS mRNA (liver of Het-MλKO mice; Het-MλKO mice)	hepatic G6 Pase expression (liver of Het-MλKO mice; Het-MλKO mice)	hepatic PEPCK expression (liver of Het-MλKO mice; Het-MλKO mice)	hepatic SREBP-1c mRNA (liver of Het-MλKO mice; Het-MλKO mice)	hepatic triglycerides (Het-MλKO mice; Het-MλKO mice)	resting (basal) serum insulin levels (Het-MλKO mice; Het-MλKO mice)	abdominal fat content (Het-MλKO mice; [3])	serum cholesterol (Het-MλKO mice; [3])	serum triglycerides (Het-MλKO mice; [3])	serum glucose levels following acute insulin treatment (Het-MλKO mice; [3])	AMP-activated protein kinase activity [1]	basal serum glucose levels (before insulin) (Het-MλKO mice; Het-MλKO mice)	other results
O=C([O-])CC([S][Au])C(=O)[O-] (stereo not drawn) [ATM, aurothiomalate, reference compound]	decreased, virtually to normal	decreased, virtually to normal	diminished	diminished	decreased, virtually to normal	decreased, virtually to normal	decreased, virtually to normal	decreased, virtually to normal	decreased, virtually to normal	decreased, virtually to normal	decreased, virtually to normal	neither ICAPP nor ATM altered		hepatic active nuclear NFκB/p65/RelA levels (liver of Het-MλKO mice; [2]): decreased, virtually to normal; hepatic expression of IL-1β (liver of Het-MλKO mice; [2]): normalized; hepatic expression of TNF-α (liver of Het-MλKO mice; [2]): normalized
NC(=O)c1ncn([C@@H]2C[C@H](CO)[C@@H](O)[C@H]2O)c1N [ICAP, 1H-imidazole-4-carboxamide 5-amino-1-[2,3-dihydroxy-4-[hydroxymethyl]cyclopentyl]-[1R-(1α,2β,3β,4α)]]			decreased	decreased	decreased			diminished	diminished	diminished	diminished		diminished	relative mRNA level, G6Pase (liver of Het-MλKO mice; [4]): 1.42; relative mRNA level, PEPCK (liver of Het-MλKO mice; [4]): 0.52; relative mRNA level, SREBP-1c (liver of Het-MλKO mice; [4]): 1.14; Abdominal fat (Het-MλKO mice; [5]): 26 ± 3.2 mg/g body weight; Ad lib-fed serum glucose (Het-MλKO mice; [5]): 139 ± 20 mg/dL; serum cholesterol (Het-MλKO mice; [5]): 108 ± 10 mg/dL; serum triglycerides (Het-MλKO mice; [5]): 104 ± 7 mg/dL
NC(=O)c1ncn([C@@H]2C[C@H](COP(=O)(O)O)[C@@H](O)[C@H]2O)c1N [ICAPP, 1H-imidazole-4-carboxamide, 5-amino-1-[2,3-dihydroxy-4-[(phosphonooxy)methyl]cyclopentyl]-[1R-(1α,2β,3β,4α)]]	diminished to wild type levels	diminished to wild type levels	trended downward to or toward control levels	trended downward to or toward control levels	diminished to wild type levels	marked improvements	marked improvements	marked improvements	marked improvements	marked improvements	marked improvements	neither ICAPP nor ATM altered	marked improvements	serum free fatty acids (Het-MλKO mice; Het-MλKO mice, ICAPP 0.4 mg/kg/day s.c., 7 days): marked improvements; food intake (Het-MλKO mice; Het-MλKO mice, ICAPP-treated): not altered
